According to paper PMC8344243, “Design, synthesis, docking, ADMET studies, and anticancer evaluation of new 3-methylquinoxaline derivatives as VEGFR-2 inhibitors and apoptosis inducers” (Journal of Enzyme Inhibition and Medicinal Chemistry, 2021):

Legend:
MCF-7 = assay: MTT anti-proliferative assay, MCF-7; type: cell-based; conditions: for IC50: Homo sapiens, MCF7, MCF-7, MTT assay, read-out: Cytotoxicity on cancer cells IC50, MCF-7
Procedure: (§1) In vitro cytotoxic activities of the synthesised compounds were evaluated against two different cancer cell lines; breast cancer (MCF-7) and hepatocellular carcinoma (HepG2) using standard MTT colorimetric assay as described by Mosmann[78]^,[79]. […].
(§2) The in vitro antiproliferative activities were assessed using the MTT assay protocol[78]^,[79]^,[95]. As shown in Supplementary Data.

human VEGFR-2 = target: T1, human VEGFR-2 (Homo sapiens, UniProt P35968); assay: In vitro VEGFR-2 enzyme inhibition assay (ELISA kit, HepG2 cell line); type: biochemical; conditions: human VEGFR-2 in HepG2 cell line
T1 construct: endogenous in cells; host or cells: HepG2
Source text: The synthesised compounds were estimated for their in vitro inhibition on human VEGFR-2 in HepG2 cell line; using ELISA kit[96] as described in Supplementary Data.

HepG2 = assay: MTT anti-proliferative assay, HepG2; type: cell-based; conditions: Homo sapiens, read-out: Cytotoxicity on cancer cells IC50, HepG2
Procedure: as §1, §2

T1 sequence (P35968 20-1356): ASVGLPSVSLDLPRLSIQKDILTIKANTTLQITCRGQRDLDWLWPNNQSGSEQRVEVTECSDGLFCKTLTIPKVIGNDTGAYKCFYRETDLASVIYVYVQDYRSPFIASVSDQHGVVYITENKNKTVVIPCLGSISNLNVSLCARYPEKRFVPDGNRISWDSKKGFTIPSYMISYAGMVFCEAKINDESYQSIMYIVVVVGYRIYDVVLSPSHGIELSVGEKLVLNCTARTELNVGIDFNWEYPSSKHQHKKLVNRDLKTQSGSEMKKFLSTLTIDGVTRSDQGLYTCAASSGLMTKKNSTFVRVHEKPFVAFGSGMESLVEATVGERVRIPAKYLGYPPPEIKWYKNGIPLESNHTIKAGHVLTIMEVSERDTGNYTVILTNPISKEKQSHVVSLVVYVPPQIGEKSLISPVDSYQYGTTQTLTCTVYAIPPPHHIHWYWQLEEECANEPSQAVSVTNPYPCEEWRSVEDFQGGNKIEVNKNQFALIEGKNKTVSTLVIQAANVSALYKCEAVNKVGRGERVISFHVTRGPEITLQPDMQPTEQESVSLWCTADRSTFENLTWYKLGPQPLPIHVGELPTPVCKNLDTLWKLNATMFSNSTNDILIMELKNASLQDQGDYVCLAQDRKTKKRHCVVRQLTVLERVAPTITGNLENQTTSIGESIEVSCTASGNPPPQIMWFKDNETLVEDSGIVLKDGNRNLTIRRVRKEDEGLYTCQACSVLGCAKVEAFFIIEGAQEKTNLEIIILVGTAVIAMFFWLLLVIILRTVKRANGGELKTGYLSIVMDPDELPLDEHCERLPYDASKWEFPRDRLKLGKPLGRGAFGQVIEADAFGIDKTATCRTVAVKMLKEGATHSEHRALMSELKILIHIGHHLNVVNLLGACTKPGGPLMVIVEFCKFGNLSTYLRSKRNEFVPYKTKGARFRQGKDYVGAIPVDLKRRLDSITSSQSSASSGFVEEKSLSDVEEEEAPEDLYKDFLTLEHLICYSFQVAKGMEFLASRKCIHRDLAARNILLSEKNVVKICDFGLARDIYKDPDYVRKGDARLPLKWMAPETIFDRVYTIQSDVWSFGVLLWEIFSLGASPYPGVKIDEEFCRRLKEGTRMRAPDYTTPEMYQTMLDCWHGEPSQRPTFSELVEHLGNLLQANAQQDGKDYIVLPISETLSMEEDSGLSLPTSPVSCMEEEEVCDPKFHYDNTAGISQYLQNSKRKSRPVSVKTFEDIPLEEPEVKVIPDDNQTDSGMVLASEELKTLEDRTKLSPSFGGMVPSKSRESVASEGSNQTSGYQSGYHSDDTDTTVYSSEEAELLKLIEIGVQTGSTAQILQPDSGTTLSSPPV

SMILES	IC50 (MCF-7) [µM]	Activity against the MCF-7 cell line (in words) (MCF-7)	IC50 (human VEGFR-2) [µM]	IC50 (HepG2) [µM]	melting point [°C]
Cc1nc2ccccc2n(CC(=O)Nc2ccc(C(=O)NCCc3ccccc3)cc2)c1=O [Compound 27b, 4-(2-(3-Methyl-2-oxoquinoxalin-1(2H)-yl)acetamido)-N-phenethylbenzamide]	62.3	inactive	0.0225	41.5	283 to 285
COc1cccc(OC)c1NC(=O)c1ccc(NC(=O)Cn2c(=O)c(C)nc3ccccc32)cc1 [Compound 27c, N-(2,6-Dimethoxyphenyl)-4-(2-(3-methyl-2-oxoquinoxalin-1(2H)-yl)acetamido)-benzamide]	57.2	inactive	0.0116	42.6	> 300
Cc1cccc(C)c1NC(=O)c1ccc(NC(=O)Cn2c(=O)c(C)nc3ccccc32)cc1 [Compound 27d, N-(2,6-Dimethylphenyl)-4-(2-(3-methyl-2-oxoquinoxalin-1(2H)-yl)acetamido)-benzamide]	30.7	–	0.0218	24.1	240 to 242
Cc1nc2ccccc2n(CC(=O)Nc2ccc(C(=O)Nc3ccc([N+](=O)[O-])cc3)cc2)c1=O [Compound 27e, 4-(2-(3-Methyl-2-oxoquinoxalin-1(2H)-yl)acetamido)-N-(4-nitrophenyl)benzamide]	42.3	–	0.0217	27.5	> 300
Cc1nc2ccccc2n(CC(=O)Nc2ccc(C(=O)NNC(=O)c3ccc([N+](=O)[O-])cc3)cc2)c1=O [Compound 28, 2-(3-Methyl-2-oxoquinoxalin-1(2H)-yl)-N-(4-(2-(4-nitrobenzoyl)hydrazine-1-carbonyl)phenyl)acetamide]	17.2	–	0.0042	11.7	–
Cc1nc2ccccc2n(CC(=O)Nc2ccc(C(=O)NNc3ccccc3)cc2)c1=O [Compound 29, 2-(3-Methyl-2-oxoquinoxalin-1(2H)-yl)-N-(4-(2-phenylhydrazine-1-carbonyl)phenyl) acetamide]	23.5	–	0.0098	17.5	–
Cc1nc2ccccc2nc1SCC(=O)Nc1ccc(C(=O)NC2CCCCC2)cc1 [Compound 30b, N-Cyclohexyl-4-(2-((3-methylquinoxalin-2-yl)thio)acetamido)benzamide]	43.8	–	0.0087	34.2	–
Cc1nc2ccccc2nc1SCC(=O)Nc1ccc(C(=O)Nc2ccccc2)cc1 [Compound 30e, 4-(2-((3-Methylquinoxalin-2-yl)thio)acetamido)-N-phenylbenzamide]	31.3	–	0.0274	24.3	–
COc1cccc(OC)c1NC(=O)c1ccc(NC(=O)CSc2nc3ccccc3nc2C)cc1 [Compound 30g, N-(2,6-Dimethoxyphenyl)-4-(2-((3-methylquinoxalin-2-yl)thio)acetamido) benzamide]	61.7	inactive	0.0389	40.8	–
Cc1nc2ccccc2nc1SCC(=O)Nc1ccc(C(=O)Nc2ccc(Cl)cn2)cc1 [Compound 30i, N-(5-Chloropyridin-2-yl)-4-(2-((3-methylquinoxalin-2-yl)thio)acetamido)benzamide]	17.2	–	0.0061	12.7	–
Cc1nc2ccccc2nc1SCC(=O)Nc1ccc(C(=O)NNC(=O)c2ccccc2)cc1 [Compound 31a, N-(4-(2-benzoylhydrazine-1-carbonyl)phenyl)-2-((3-methylquinoxalin-2-yl)thio) acetamide]	23.1	–	0.0107	18.7	–
Cc1nc2ccccc2nc1SCC(=O)Nc1ccc(C(=O)NNc2ccccc2)cc1 [Compound 32, 2-((3-Methylquinoxalin-2-yl)thio)-N-(4-(2-phenylhydrazine-1-carbonyl)phenyl) acetamide]	59.5	inactive	0.0238	41.3	–
